Measurements as given in patent US9901646B2, “Methods for induction of antigen-specific immune tolerance” (École Polytechnique Fédérale de Lausanne (EPFL), priority 2010, dated 2018).
8‑arm PEG = 8-arm polyethylene glycol (PEG) dendrimer, conjugated via pyridyldisulfide groups to cysteine thiols

Legend:
circulating erythrocytes = experiment: 8-arm PEG constructs binding to circulating erythrocytes after intravenous injection, flow cytometry; type: in vivo, mouse
Source text: FIG. 17 presents experimental results depicting erythrocyte cell-surface half-life of 8-arm PEG-ERY1 (filled circles) and 8-arm PEG-MIS (empty boxes), determined by flow cytometry.

mouse erythrocytes [1] = experiment: 8-arm PEG constructs binding to erythrocytes in vitro, flow cytometry
OT-I CD8+ T cells [2] = experiment: OT-I tolerance and challenge model (Example 21); type: in vivo, mouse
Method: 3×10^5 CFSE-labeled OT-I CD8^+ T cells were injected into CD45.1^+ recipient mice as described above. 1 and 6 d following adoptive transfer, mice were intravenously administered 10 μg of ERY1-OVA or OVA, or an equimolar dose of TER119-SIINFEKL in 100 μL, saline into the tail vein. 15 d following adoptive transfer, mice were challenged with 5 μg OVA and 25 ng ultra-pure Escherichia coli LPS (InvivoGen) in 25 μL intradermally into each rear leg pad (Hock method, total dose of 10 μg OVA and 50 ng LPS). Mice were sacrificed 4 d following challenge, and spleen and draining lymph node cells were isolated for restimulation. For flow cytometry analysis of intracellular cytokines, cells were restimulated in the presence of 1 mg/mL OVA or 1 μg/mL SIINFEKL peptide (Genscript) for 3 h. Brefeldin-A (Sigma, 5 μg/mL) was added and restimulation resumed for an additional 3 h prior to staining and flow cytometry analysis.
(§1) The following anti-mouse antibodies were used for flow cytometry: CD1d Pacific Blue, CD3E PerCP-Cy5.5, CD8a PE-Cy7, CD45.2 Pacific Blue, IFNγ-APC, CD8a APC-eF780, (all from eBioscience), in addition to fixable live/dead dye (Invitrogen), and annexin-V-Cy5 labeling kit (BioVision). Samples were analyzed on a CyAn ADP flow cytometer (Beckman Coulter). Cells were washed first with PBS, stained for 20 min on ice with live/dead dye, blocked for 20 min on ice with 24G2 hybridoma medium, surface stained for 20 min on ice, fixed in 2% paraformaldehyde for 20 min ice, intracellularly stained in the presence of 0.5% saponin for 45 min on ice, followed by a final wash prior to analysis. For apoptosis staining, annexin-V-Cy5 was added 5 min prior to analysis.

OT-I CD8+ T cells [3] = experiment: OT-I CD8+ T cell adoptive transfer, short-term proliferation study (Example 21); type: in vivo, mouse; conditions: intravenous
Method: CD8^+ T cells from OT-I (CD45.2^+) mouse spleens were isolated using a CD8 magnetic bead negative selection kit (Miltenyi Biotec) as per the manufacturer's instructions. Freshly isolated CD8^+ OT-I cells were resuspended in PBS and labeled with […] carboxyfluorescein succinimidyl ester (CFSE, Invitrogen) for 6 min at room temperature, and the reaction was quenched for 1 min with an equal volume of IMDM with 10% FBS (Gibco). Cells were washed, counted, and resuspended in pure IMDM prior to injection. 3×10^6 CFSE-labeled CD8^+ OT-I cells were injected intravenously into the tail vein of recipient CD45.1^+ mice. For short-term proliferation studies, 10 μg of ERY1-OVA or OVA, or an equimolar dose of TER119-SIINFEKL in 100 μL volume was injected 24 h following adoptive transfer. Splenocytes were harvested 5 d following antigen administration and stained for analysis by flow cytometry.
as §1

mouse erythrocytes [4] = experiment: scFv binding to erythrocytes, flow cytometry with anti-6×His-PE
Method: FIG. 19 presents experimental results as a flow cytometry histogram. Mouse erythrocytes were incubated with TER119-SIINFEKL (grey filled histogram) or albumin (empty histogram). Fluorescent signal comes from the anti-6×His-PE antibody used in detection of the scFv.

[5] = system: human erythrocytes (type A and B); experiment: Binding of bacteria displaying peptide to cells, flow cytometry; conditions: peptide displayed on bacteria, 1 h at 4° C.
Method: (§2) Method: To characterize specificity, individual sequenced clones were analyzed using cytometry for binding toward human erythrocytes (type A and B), mouse erythrocytes, HEK293T cells and HUVECs. For binding assays, 10^6 mammalian cells were scanned on an AccuriA6 after co-incubation with 5×10^7 bacteria for 1 h at 4° C. followed by three washes in HFS (5% HSA, 2% FBS in PBS). The percentage of cells with green bacteria bound was calculated using FLOWJO Software.

[6] = system: human epithelial 293T cells; experiment: as above; conditions: peptide displayed on bacteria
Method: as §2

human endothelial HUVECs = experiment: as above; conditions: peptide displayed on bacteria
Method: as §2

[7] = Immunogenicity of erythrocyte-bound versus wild-type asparaginase, serum IgG ELISA; type: in vivo, mouse; conditions: 2-dose regimen, 15 μg i.v. every 2 days, up to 21 days following the final injection
Method: A mouse erythrocyte-binding variant of asparaginase (ERY1-ASNase) was created by conjugating the mouse erythrocyte-specific peptide ERY1 (Kontos and Hubbell, 2010). To determine the immunogenicity of erythrocyte-bound versus wild-type asparaginase, a study was performed to evaluate to evaluate two regimens, namely exposure to a 2-dose and a 6-dose regimen of the ERY conjugate (ERY1-ASNase) or the native form (ASPARAGINASE MEDAC, Medac GmbH; which was also used as the raw material for the ERY1-ASNase conjugate). In each regimen, 15 μg of ERY1-ASNase or ASNase was administered intravenously every 2 days, and blood was drawn every 7 days.
(§3) Desired dosages of ERY1-ASNase or ASNase were prepared in sterile 0.9% saline, and 100 μL of the solution was injected into the tail vein of anesthetized C57BL/6 mice. Blood was drawn at pre-determined time points either by cheek puncture or tail incisions.
(§4) Anti-asparaginase antibody detection from serum method Serum from experimental groups was serially diluted into PBS and incubated for 2 h at RT on ASNase-coated ELISA plates. HRP-conjugated anti-mouse IgG (Southern Biotech) was used as the detection antibody.

[8] = Cross-over study: reversal of pre-existing immunity towards asparaginase; type: in vivo, mouse; conditions: 21 days following multiple intravenous doses two days apart
Method: A cross-over study was performed to determine if erythrocyte-binding asparaginase could reverse immunity towards clinical asparaginase. Mice were intravenously administered multiple doses of wild-type asparaginase two days apart. […] Immunized mice were then therapeutically treated with erythrocyte-binding asparaginase regimens at varying doses. In both dosing regimens, ERY-conjugated asparaginase reduced antibody levels approx. 10-fold, thus reversing pre-existing humoral immunity
as §3
Serum from experimental groups was serially diluted into PBS and incubated for 2 h at RT on ASNase-coated ELISA plates. HRP-conjugated anti-mouse IgG (Southern Biotech) was used as the detection antibody.

[9] = Prophylaxis study: tolerance towards wild-type asparaginase; type: in vivo, mouse; conditions: re-administration / six challenges with wild-type asparaginase
Method: A prophylaxis study was performed to determine if erythrocyte-binding asparaginase induced bona-fide immune tolerance towards wild-type asparaginase. Mice previously administered with wild-type clinical asparaginase were challenged with an additional dose following the onset of humoral immunity. […] On average, mice tolerized with erythrocyte-binding asparaginase developed approx. 6000-fold fewer antibodies towards clinical wild-type asparaginase.
as §3, §4

mouse erythrocytes [10] = experiment: TER119-ChrA binding to erythrocytes; conditions: data not shown
BDC2.5 CD4 T cells = experiment: Co-culture of BDC2.5 splenic dendritic cells and CD4 T cells, proliferation; type: cell-based, mouse; conditions: co-culture with BDC2.5 splenic dendritic cells
Source text: FIG. 24 is a plot of experimental results showing proliferation of CD4 T cells from the transgenic NODBDC2.5 mouse in co-culture with splenic DCs, with various media additives.
To study T cell behavior towards the chromogranin-A antigen variants, the NODBDC2.5 transgenic mouse was used, which harbors T cells specific for the recognition of the chromogranin-A antigen.

[11] = following challenge with OVA and LPS
[12] = i.v. 1 and 6 days after adoptive transfer, 4 d after OVA/LPS challenge

In the case of “8-arm PEG-ERY1: fluorescent 8-arm PEG construct conjugated with ERY1 peptide by disulfide bond (H-WMVLPWLPGTLDGGSGC(8‑arm PEG)RG-NH2; also: Cys disulfide-linked to 8-arm PEG scaffold (fluorescent))”, the “binding to circulating erythrocytes upon intravenous injection” value (circulating erythrocytes; flow cytometry) is reported as “bind to circulating erythrocytes”, the “cell-surface half-life on circulating erythrocytes” value (circulating erythrocytes; intravenous administration) is reported as 2.2 h and the “time detected on circulating erythrocytes following intravenous administration” value (circulating erythrocytes; intravenous administration) is reported as 5 h. For the same molecule, the “binding to mouse erythrocytes following in vitro incubation” value (mouse erythrocytes [1]) was “bind to mouse erythrocytes”.

In the case of “TER119-SIINFEKL: recombinant fusion of scFv TER119 to the MHC-I immunodominant domain of OVA (SGLEQLESIINFEKL; epitope)”, the “fewer IFNγ-expressing cells in lymph nodes compared to challenge control mice” value (OT-I CD8+ T cells [2]; [11]) is reported as 33 fold, the “fewer IFNγ-expressing cells in lymph nodes compared to mice treated with an equivalent dose of OVA” value (OT-I CD8+ T cells [2]; [11]) is reported as “over 14 fold” and the “fewer OT-I CD8+ T cells in draining lymph nodes as compared to OVA-treated mice” value (OT-I CD8+ T cells [2]; [12]) is reported as “over 13 fold”. The “fewer OT-I CD8+ T cells in draining lymph nodes than challenge control mice” value (OT-I CD8+ T cells [2]; [12]) was “over 42 fold”, the “PD-1+ proliferating OT-I CD8+ T cells compared to OVA” value (OT-I CD8+ T cells [3]; 10 μg or equimolar dose) was “much higher numbers” and the “annexin-V+ proliferating OT-I CD8+ T cells compared to OVA” value (OT-I CD8+ T cells [3]; 10 μg or equimolar dose) was “much higher numbers”. The “OT-I CD8+ T cell proliferation (CFSE dilution) compared to ERY1-OVA or OVA” value (OT-I CD8+ T cells [3]; spleen, 5 days, dose equimolar to 10 μg OVA) was “markedly enhanced” and the “binding to mouse erythrocytes” value (mouse erythrocytes [4]) was “bound mouse erythrocytes”.

In the case of “GQSGQSWSRAILPLFKIQPVGSSGGS (Erythrocyte Binding Peptide) [ERY50]”, the “binding to human erythrocytes, specificity as compared to 293T cells and HUVECs” value [5] is reported as “bound human erythrocytes”, the “binding to epithelial 293T cells” value [6] is reported as “bound epithelial/endothelial cells” and the “binding to endothelial HUVECs” value (human endothelial HUVECs) is reported as “bound epithelial/endothelial cells”.

B1: asparaginase (protein, UniProt P00805 23-348, looked up)
L-asparaginase 2: LPNITILATGGTIAGGGDSATKSNYTVGKVGVENLVNAVPQLKDIANVKGEQVVNIGSQDMNDNVWLTLAKKINTDCDKTDGFVITHGTDTMEETAYFLDLTVKCDKPVVMVGAMRPSTSMSADGPFNLYNAVVTAADKASANRGVLVVMNDTVLDGRDVTKTNTTDVATFKSVNYGPLGYIHNGKIDYQRTPARKHTSDTPFDVSKLNELPKVGIVYNYANASDLPAKALVDAGYDGIVSAGVGNGNLYKSVFDTLATAAKTGTAVVRSSRVPTGATTQDAEVDDAKYGFVASGTLNPQKARVLLQLALTQTKDPQQIQQIFNQY
notes: native asparaginase, Medac GmbH
In the case of B1, the “asparaginase-specific antibody titers (immunogenicity)” value [7] is reported as “induced vigorous immunity”, the “anti-asparaginase antibodies in serum” value [8] is reported as “high levels of anti-asparaginase antibodies” and the “antibody response after challenge with wild-type asparaginase” value [9] is reported as “increased or remained high”.

B2: TER119-ChrA: chromogranin-A mimotope 1040-p31 recombinantly fused to mouse erythrocyte-specific scFv TER119 (protein)
scFv: EVKLQESGGGLVQPGGSLKLSCVASGFTFRDHWMNWVRQAPGKTMEWIGDIRPDGSDTNYAPSVRNRFTISRDNTRSILYLQMGNMRSDYTATYYCVRDSPTRAGLMDAWGQGTSVTVSSAGGGGSGGGGSGGGGSGGGGSDIQMTQSPSVLSASVGDRVTLNCKASQNINKYLNRYQQKLGEAPKVLVYNTNNLQTGIPSRFSGSGSGTDFTLTISSLQPEDFATYFCFQHYTWPTFGGVTKLEIKRTHHHHHHGGGYVRPLWVRME
In the case of B2, the “binding to mouse erythrocytes” value (mouse erythrocytes [10]) is reported as “tightly bound mouse erythrocytes” and the “processing and display on MHC-II, priming of antigen-specific proliferation of BDC2.5 CD4 T cells in vitro” value (BDC2.5 CD4 T cells) is reported as “efficiently processed”.
